According to ChEMBL document CHEMBL1201862, “PubChem BioAssay data set” (2004):
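These data come from cells grown in 96-well plates and exposed to compound for 48 hours at five concentrations. At the GI50, growth is halved.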 Active and inactive are the calls of the source. Rule as the data show it: active = GI50 up to about 1.1 µM and inactive = higher.

Tests used:
Assay in all cases: inhibition of tumour cell growth, NCI panel, 48 h
A549 = system: A549
BT-549 = system: BT-549
CCRF-CEM = system: CCRF-CEM
HCC 2998 = system: HCC 2998
IGROV-1 = system: IGROV-1
MDA-MB-231 = system: MDA-MB-231
NCI-H226 = system: NCI-H226
NCI-H23 = system: NCI-H23
NCI-H522 = system: NCI-H522
NCI/ADR-RES = system: NCI/ADR-RES
OVCAR-4 = system: OVCAR-4
OVCAR-8 = system: OVCAR-8
PC-3 = system: PC-3
RPMI-8226 = system: RPMI-8226
SF-268 = system: SF-268
SK-OV-3 = system: SK-OV-3
SR = system: SR
T47D = system: T47D
U-251 = system: U-251
M19-MEL = system: M19-MEL

Measured: GI50

S=C1NCN2CCN(CC2)CNC(=S)C(=S)NCN2CCN(CC2)CNC1=S
inactive: A549 36.8 µM | BT-549 59 µM | CCRF-CEM 18.5 µM | HCC 2998 78.5 µM | IGROV-1 64.3 µM | MDA-MB-231 > 100 µM | NCI-H226 > 100 µM | NCI-H23 43 µM | NCI-H522 31 µM | NCI/ADR-RES 67.5 µM | OVCAR-4 > 100 µM | OVCAR-8 31.8 µM | PC-3 35.2 µM | RPMI-8226 23.7 µM | SF-268 61.2 µM | SK-OV-3 > 100 µM | SR 58.9 µM | T47D > 100 µM | U-251 37.7 µM

O=C1c2ccccc2C(=O)c2c(NCCNCCO)ccc(O)c21
inactive: A549 2.45 µM | CCRF-CEM 3.15 µM | HCC 2998 4.66 µM | IGROV-1 2.97 µM | M19-MEL 2.82 µM | NCI-H226 2.71 µM | NCI-H23 2.59 µM | NCI-H522 2.59 µM | OVCAR-4 2.85 µM | OVCAR-8 2.39 µM | RPMI-8226 3.22 µM | SF-268 2.14 µM | SK-OV-3 2.55 µM | U-251 3.48 µM

C=CCC(OCCOCC)c1cc(OCCOCC)ccc1OC (stereo unspecified)
inactive: A549 > 100 µM | CCRF-CEM > 100 µM | HCC 2998 > 100 µM | IGROV-1 > 100 µM | M19-MEL > 100 µM | NCI-H226 > 100 µM | NCI-H522 > 100 µM | OVCAR-4 > 100 µM | OVCAR-8 > 100 µM | RPMI-8226 > 100 µM | SF-268 > 100 µM | SK-OV-3 > 100 µM | U-251 > 100 µM

CCOc1ccc(NCC2CC/C(=C\c3ccccc3OC)C2=O)cc1 (stereo unspecified)
active: RPMI-8226 0.92 µM
inactive: A549 17.9 µM | CCRF-CEM 2.49 µM | HCC 2998 12.8 µM | IGROV-1 10.6 µM | M19-MEL 8.95 µM | NCI-H226 18.6 µM | NCI-H23 19.2 µM | NCI-H522 1.94 µM | OVCAR-4 6.38 µM | OVCAR-8 5.18 µM | SF-268 7.29 µM | SK-OV-3 17 µM | U-251 14.3 µM

N=c1oc2ccccc2cc1C(=O)NC12CC3CC(CC(C3)C1)C2
inactive: A549 16.2 µM | BT-549 18.2 µM | CCRF-CEM 3.18 µM | HCC 2998 14.5 µM | IGROV-1 16.5 µM | MDA-MB-231 20.1 µM | NCI-H226 24.2 µM | NCI-H23 27.4 µM | NCI-H522 3.55 µM | NCI/ADR-RES 24.2 µM | OVCAR-4 19.9 µM | OVCAR-8 30.4 µM | PC-3 17.8 µM | RPMI-8226 5.71 µM | SF-268 34 µM | SK-OV-3 7.64 µM | SR 2.9 µM | T47D 4.52 µM | U-251 17.1 µM

O=c1[nH]c(=O)n(C2CC(O)C(CO)O2)cc1C#Cc1cc(F)cc(F)c1 (stereo unspecified)
inactive: A549 > 100 µM | CCRF-CEM > 100 µM | HCC 2998 > 100 µM | IGROV-1 > 100 µM | M19-MEL > 100 µM | NCI-H226 > 100 µM | NCI-H23 > 100 µM | NCI-H522 > 100 µM | OVCAR-4 > 100 µM | OVCAR-8 > 100 µM | RPMI-8226 > 100 µM | SF-268 > 100 µM | SK-OV-3 > 100 µM | U-251 > 100 µM

COc1cccc(N2C(=O)C3CC(CC(C)(C)C)c4c([nH]c5ccccc45)C3C2=O)c1 (stereo unspecified)
inactive: A549 > 10 µM | BT-549 9.51 µM | CCRF-CEM > 10 µM | HCC 2998 > 10 µM | IGROV-1 > 10 µM | MDA-MB-231 4.92 µM | NCI-H226 2.77 µM | NCI-H23 > 10 µM | NCI-H522 > 10 µM | NCI/ADR-RES > 10 µM | OVCAR-4 2.62 µM | OVCAR-8 3.56 µM | PC-3 > 10 µM | RPMI-8226 > 10 µM | SF-268 > 10 µM | SK-OV-3 > 10 µM | SR 1.48 µM | T47D > 10 µM | U-251 7.91 µM

N#Cc1c(Cl)cc(C#N)n2c1nc1ccccc12
active: SR 0.532 µM
inactive: A549 15 µM | BT-549 6.12 µM | CCRF-CEM 1.3 µM | HCC 2998 21.2 µM | IGROV-1 14.6 µM | MDA-MB-231 8.87 µM | NCI-H226 33.7 µM | NCI-H23 13.2 µM | NCI-H522 2.42 µM | NCI/ADR-RES 15.1 µM | OVCAR-4 13.8 µM | OVCAR-8 5.92 µM | PC-3 18.2 µM | RPMI-8226 4.14 µM | SF-268 5.6 µM | SK-OV-3 21.9 µM | T47D 3.12 µM | U-251 20.8 µM

N#Cc1c(-c2ccco2)cc(-c2ccc(NCc3nc4ccccc4[nH]3)cc2)nc1N
inactive: A549 29.8 µM | CCRF-CEM 27.4 µM | HCC 2998 21.8 µM | IGROV-1 23 µM | M19-MEL 25.1 µM | NCI-H23 20.2 µM | NCI-H522 18.8 µM | OVCAR-4 22.8 µM | OVCAR-8 20.4 µM | RPMI-8226 19.2 µM | SF-268 30.1 µM | SK-OV-3 50.5 µM | U-251 25.9 µM

CCOC(=O)CCC(NC(=O)N1CCN(c2c(C)nc(C)nc2O)CC1)C(=O)OCC (stereo unspecified)
inactive: A549 > 100 µM | BT-549 > 100 µM | CCRF-CEM > 100 µM | HCC 2998 > 100 µM | IGROV-1 > 100 µM | MDA-MB-231 > 100 µM | NCI-H226 > 100 µM | NCI-H23 > 100 µM | NCI-H522 > 100 µM | NCI/ADR-RES > 100 µM | OVCAR-4 > 100 µM | OVCAR-8 > 100 µM | PC-3 > 100 µM | RPMI-8226 > 100 µM | SF-268 > 100 µM | SK-OV-3 > 100 µM | SR > 100 µM | T47D > 100 µM | U-251 > 100 µM

CC1OC(c2ccc3c(c2O)C(=O)C2=C(C3=O)C3(O)C(=O)CC(C)(O)CC3(O)C=C2)CC(O)C1O (stereo unspecified)
inactive: A549 26.3 µM | BT-549 18.7 µM | CCRF-CEM 2.05 µM | HCC 2998 15.5 µM | IGROV-1 13.4 µM | MDA-MB-231 2.25 µM | NCI-H226 19.8 µM | NCI-H23 20.6 µM | NCI-H522 2.34 µM | NCI/ADR-RES 19.5 µM | OVCAR-4 13.7 µM | OVCAR-8 14.1 µM | PC-3 23.3 µM | RPMI-8226 9.73 µM | SF-268 21.2 µM | SK-OV-3 41.3 µM | SR 10.2 µM | T47D 11.5 µM | U-251 16.7 µM

CN(C)C(Cc1c[nH]cn1)C(=O)N1CCCC1C(N)=O (stereo unspecified)
inactive: A549 > 100 µM | BT-549 > 100 µM | CCRF-CEM > 100 µM | HCC 2998 > 100 µM | IGROV-1 > 100 µM | MDA-MB-231 > 100 µM | NCI-H226 > 100 µM | NCI-H23 > 100 µM | NCI-H522 > 100 µM | NCI/ADR-RES > 100 µM | OVCAR-4 > 100 µM | OVCAR-8 > 100 µM | PC-3 > 100 µM | RPMI-8226 > 100 µM | SF-268 > 100 µM | SK-OV-3 > 100 µM | SR > 100 µM | T47D > 100 µM | U-251 > 100 µM

CCCCCC(/C=C/[C@@H]1[C@H]2CC(=O)O[C@H]2C[C@H]1N1CCOCC1)OC1CCCO1 (stereo partly specified)
inactive: A549 > 100 µM | CCRF-CEM > 100 µM | HCC 2998 > 100 µM | IGROV-1 > 100 µM | M19-MEL > 100 µM | NCI-H226 > 100 µM | NCI-H23 > 100 µM | NCI-H522 > 100 µM | OVCAR-4 > 100 µM | OVCAR-8 > 100 µM | RPMI-8226 > 100 µM | SF-268 > 100 µM | SK-OV-3 > 100 µM | U-251 > 100 µM

O=C(C#Cc1cnc(O)nc1O)c1ccccc1
inactive: A549 24.7 µM | CCRF-CEM 1.97 µM | HCC 2998 18.3 µM | IGROV-1 17.9 µM | M19-MEL 9.48 µM | NCI-H226 24.8 µM | NCI-H23 13.7 µM | OVCAR-4 14.1 µM | OVCAR-8 10.5 µM | RPMI-8226 7.76 µM | SF-268 13.6 µM | SK-OV-3 27.3 µM | U-251 13.9 µM

CCCNC(=O)CCC(C)[C@H]1CCC2C3C(C[C@H](OC(C)=O)[C@@]21C)[C@@]1(C)CCC2(C[C@H]1C[C@H]3OC(C)=O)OOC1(CCCCC1)OO2 (stereo partly specified)
inactive: BT-549 2.55 µM | CCRF-CEM 1.73 µM | HCC 2998 2.7 µM | MDA-MB-231 1.94 µM | NCI-H226 3.84 µM | NCI-H23 1.12 µM | NCI/ADR-RES 2.39 µM | OVCAR-4 1.74 µM | OVCAR-8 1.42 µM | PC-3 1.69 µM | SF-268 2.02 µM | SK-OV-3 24.9 µM | SR 1.32 µM | T47D 2.11 µM | U-251 1.85 µM
active: A549 0.416 µM | IGROV-1 0.478 µM | NCI-H522 0.473 µM | RPMI-8226 0.923 µM

C=Cc1c(C)c(O)cc2c1-c1ccc(O)c(C)c1CC2
inactive: A549 19 µM | BT-549 19.5 µM | CCRF-CEM 12.5 µM | HCC 2998 19 µM | IGROV-1 16.6 µM | MDA-MB-231 23.2 µM | NCI-H226 17.3 µM | NCI-H23 17.1 µM | NCI-H522 19.4 µM | NCI/ADR-RES 21 µM | OVCAR-4 17.1 µM | OVCAR-8 17.5 µM | PC-3 > 10 µM | RPMI-8226 22.4 µM | SF-268 18.5 µM | SK-OV-3 17 µM | SR 3.71 µM | T47D 10.9 µM | U-251 14.3 µM
